As a reminder, the EC50 is the midpoint of the concentration-response curve. A higher EC50 goes with lower potency in that assay.

In data set [1] the test system is cleaved caspase-3, caspase-8, cleaved caspase-9, and PARP. Briefly: Western blot for caspase and PARP cleavage. The data set is classed as cell-based, human. As to conditions: 30 μM, 48 hours, cell lines, hTERT-HMEC and PE cells. The method, then: Cells were lysed in cold radioimmunoprecipitation assay buffer (50 mM Tris HCl, 150 mM NaCl, 0.1% sodium dodecyl sulfate (SDS), 0.5% sodium deoxycholate, 1% Triton X-100, pH = 8.0) supplemented with protease inhibitor cocktail (Sigma), phosphatase inhibitor cocktail 2 (Sigma) and 1 mM dithiothreitol (DTT) (Sigma). The lysate was sonicated for 30 seconds using a 450 Sonifier (Branson Ultrasonics, Danbury, CT, USA) and was centrifuged at 14,000 RPM for five minutes at 4°C. The protein concentration was determined using the BCA protein assay kit (Peirce, Rockford, IL, USA) and the samples were boiled for five minutes with 4× SDS Laemmli buffer. Equal amounts of protein were resolved on SDS polyacrylamide gels and transferred to an Immobilon-FL PVDF membrane (EMD Millipore). Blots were blocked in Odyssey Blocking Buffer (LI-COR, Lincoln, NE, USA) for one hour at room temperature, stained with primary antibodies overnight at 4°C, washed, and stained with IR800CW or IR680 anti-mouse or rabbit secondary antibodies (LI-COR) for one hour at room temperature. Blots were imaged with the Odyssey Infrared Imaging System (LI-COR). […]
Background: A western blot detects proteins with antibodies after separation by electrophoresis.

Another data set relates to LC3A/B-II. Description: Western blot for LC3A/B-II (autophagy). The data set is classed as cell-based, human. As to conditions: T47D cells, 30 μM, 48 hours. The method, then:
Cells were lysed in cold radioimmunoprecipitation assay buffer (50 mM Tris HCl, 150 mM NaCl, 0.1% sodium dodecyl sulfate (SDS), 0.5% sodium deoxycholate, 1% Triton X-100, pH = 8.0) supplemented with protease inhibitor cocktail (Sigma), phosphatase inhibitor cocktail 2 (Sigma) and 1 mM dithiothreitol (DTT) (Sigma). The lysate was sonicated for 30 seconds using a 450 Sonifier (Branson Ultrasonics, Danbury, CT, USA) and was centrifuged at 14,000 RPM for five minutes at 4°C. The protein concentration was determined using the BCA protein assay kit (Peirce, Rockford, IL, USA) and the samples were boiled for five minutes with 4× SDS Laemmli buffer. Equal amounts of protein were resolved on SDS polyacrylamide gels and transferred to an Immobilon-FL PVDF membrane (EMD Millipore). Blots were blocked in Odyssey Blocking Buffer (LI-COR, Lincoln, NE, USA) for one hour at room temperature, stained with primary antibodies overnight at 4°C, washed, and stained with IR800CW or IR680 anti-mouse or rabbit secondary antibodies (LI-COR) for one hour at room temperature. Blots were imaged with the Odyssey Infrared Imaging System (LI-COR).

A further data set deals with caspase-3/7, -8 or -9. Description: Caspase-Glo caspase activity assay. Type of data set: cell-based, human. As to conditions: 30 μM, 24 or 48 hours, normalized to ATP viability. As to the method:
Adherent cells were seeded in two identical white 96-well plates (Costar) in 100 μL of their respective media at varying densities to achieve 80% to 90% confluency at the end of the assay. After 24 hours, the media were aspirated and the cells were treated with 30 μM C-6 or a matched 0.03% (v/v) DMSO vehicle control in the corresponding media containing 2% FBS. For suspension cultures, cells were first seeded in 75 μL of media. At the start of treatment, 25 μL of a 4× concentration of C-6 or a matched (v/v) DMSO vehicle control was added to each well such that the final volume in each well was 100 μL and the final concentration of C-6 was 30 μM. For the caspase activity assays, additional wells were treated with 1 μM staurosporine. […] For the Caspase-Glo assay, cell viability was determined for the additional 96-well plate utilizing the ATPlite 1step assay system (Perkin Elmer) according to the manufacturer's instructions. For the AAF-Glo assay, the total protein in each well of the additional plate was measured using the BCA protein assay kit (Peirce, Rockford, IL, USA). Luminescence measurements were acquired utilizing a Perkin Elmer 2104 EnVision plate reader. Raw luminescence values for each assay were normalized to the DMSO vehicle control wells. […]

The test system of a further data set is MCF-7 cells. Briefly: Dose response assay, ATPlite viability, four days. The data set is classed as cell-based, human. As to conditions: Homo sapiens, MCF7, 96 h; MCF-7, four days of treatment, ATP viability. The method, then: (§1) Cells were seeded in white 96-well plates (Costar, Tewksbury, MA, USA) in 100 μL of their respective media at varying densities to achieve 80% to 90% confluency after five days in culture. The compounds dissolved in DMSO were diluted in their corresponding media containing 2% FBS and an EP Motion 5075 (Eppendorf North America, Hauppauge, NY, USA) liquid handler was utilized to perform a serial dilution. […] After the cells were cultured for 24 hours, the media were aspirated and the cells were treated with the compounds and vehicle controls in triplicate. After four days of treatment, viability was determined utilizing the ATPlite 1step assay system (Perkin Elmer, Waltham, MA, USA) according to the manufacturer's instructions. Luminescence measurements were acquired utilizing a Perkin Elmer 2104 EnVision plate reader. Raw luminescence values were normalized to the DMSO vehicle control wells.
For orientation: ATP-based viability assays read luminescence as a measure of living cells.

The test system of the next data set is hTERT-HMEC cells. Description: Dose response assay, ATPlite viability, four days. Type of data set: cell-based, human. The method, then: as §1
Another data set deals with PE904557a cells. Description: Dose response assay, ATPlite viability, four days. Type of data set: cell-based, human. As to conditions: Homo sapiens, 96 h, four days of treatment, ATP viability, N/A = data could not be fitted. As to the method: as §1
The test system of another data set is MDA-MB-231 cells. Briefly: Dose response assay, ATPlite viability, four days. Type of data set: cell-based, human. As to conditions: Homo sapiens, 96 h; MDA-MB-231, four days of treatment, ATP viability. The method, then:
as §1

Data set [2] concerns PE1008032 cells. Briefly: Dose response assay, ATPlite viability, four days. The data set is classed as cell-based, human. As to conditions: Homo sapiens, 96 h, PE1008032, four days of treatment, ATP viability. The method, then: as §1
The test system of a further data set is PE1007070 cells. Briefly: Dose response assay, ATPlite viability, four days. As to conditions: Homo sapiens, 96 h, PE1007070, four days of treatment, ATP viability. Type of data set: cell-based, human. The method, then: as §1
The next data set concerns T47D cells. Briefly: Dose response assay, ATPlite viability, four days. As to conditions: Homo sapiens, 96 h, four days of treatment, ATP viability. Type of data set: cell-based, human. The method, then:
as §1

Data set [3] is described as follows: Dose response assay, ATPlite viability, four days. The data set is classed as cell-based. As to conditions: human, MCF-10A cells, 200 μM C-6, read-out: cells still viable. As to the method: as §1
Data set [4] has as its system PE1008032 cells. Description: AAF-Glo released protease (cell death) assay. Type of data set: cell-based, human. As to conditions: PE1008032, 30 μM, 24 to 120 hours. The method, then: Adherent cells were seeded in two identical white 96-well plates (Costar) in 100 μL of their respective media at varying densities to achieve 80% to 90% confluency at the end of the assay. After 24 hours, the media were aspirated and the cells were treated with 30 μM C-6 or a matched 0.03% (v/v) DMSO vehicle control in the corresponding media containing 2% FBS. For suspension cultures, cells were first seeded in 75 μL of media. At the start of treatment, 25 μL of a 4× concentration of C-6 or a matched (v/v) DMSO vehicle control was added to each well such that the final volume in each well was 100 μL and the final concentration of C-6 was 30 μM. For the caspase activity assays, additional wells were treated with 1 μM staurosporine. After culturing for the appropriate amount of time, either the AAF-Glo or Caspase-Glo assays (Promega, Madison, WI, USA) were performed on one 96-well plate according to the manufacturer's instructions. For the Caspase-Glo assay, cell viability was determined for the additional 96-well plate utilizing the ATPlite 1step assay system (Perkin Elmer) according to the manufacturer's instructions. For the AAF-Glo assay, the total protein in each well of the additional plate was measured using the BCA protein assay kit (Peirce, Rockford, IL, USA). Luminescence measurements were acquired utilizing a Perkin Elmer 2104 EnVision plate reader. Raw luminescence values for each assay were normalized to the DMSO vehicle control wells. The values for the Caspase-Glo or AAF-Glo assays were then normalized to the ATPlite values or total protein, respectively, in order to account for differences in cell numbers and were plotted as an average ± SD of four wells per condition.

On to `COc1cc(OC)cc(C(C)c2ccc(NC(=O)OC(C)(C)C)cc2)c1` (stereo not drawn) [C-6], for which, in data set [1], the “cleavage of caspase-3, -8, -9, or PARP” value was “did not induce cleavage”. The LC3A/B-II levels result with LC3A/B-II was “small increase”. Further, the caspase activity result in the data set with caspase-3/7, -8 or -9 was “did not induce significant caspase activity”. Moreover, the EC50 in the data set on MCF-7 cells was determined as 11 µM; in the data set with PE904557a cells, 75.7 µM; in the data set with MDA-MB-231 cells, 10.5 µM; with PE1008032 cells [2] it was 33.3 µM; in the data set with PE1007070 cells, 24.4 µM; with T47D cells it was 8.29 µM. The effect on viability result with hTERT-HMEC cells is reported as “did not significantly reduce the viability”. Besides, the viability at 4 days, 200 μM in data set [3] is over 70%. Also, in the data set on PE1008032 cells [4], the “relative AAF-Glo activity” value is given as “did not have increased AAF-Glo activity”.

For the origin of these results see publication PMC4028696, “Development of a screen to identify selective small molecules active against patient-derived metastatic and chemoresistant breast cancer cells” (Breast Cancer Research : BCR, 2013).
